The values that follow come from patent publication US10981932B2, “Macrocyclic indole derivatives” (Bayer Aktiengesellschaft, priority 2016, dated 2021).

Format in all cases: cell-based
The subject of assay [1] is SK-MEL-2. In words: Anti-proliferative effect (CellTiter-Glo, 72 h), SK-MEL-2. Particulars: Homo sapiens, SK-MEL-2 cells, median, read-out: IC50 antiproliferation assay SK-MEL-2 [M] (median). As for the experimental part:
Assessment of the Anti-Proliferative Effect of Compounds in Different Cell Lines
(§1) The impact of compounds on the proliferation of different cell lines was assessed using the CellTiter-Glo® Luminescent Cell Viability reagent from Promega (G7573). Of note, SUDHL10 and SUDHL5 (DLBCL), NCI-H929 (Multiple Myeloma), A2780 (ovarian carcinoma) as well as MV-4-11(AML) cells are sensitive to MCL-1 inhibition.
(§2) In parallel, cells were plated in a reference (day 0) plate for time zero determination.
(§3) Rim wells were excluded. The cells were incubated for 72 h hours in a humidified incubator at 37° C. The day 0 plate was measured by adding 30 μl/well of CTG solution (CellTiter-Glo® Luminescent Cell Viability reagent, Promega G7573) to time zero wells in the reference plate followed by a 10 minutes incubation and luminescence reading at 0.1 ms, using the PHERAstar FS microplate reader (BMG Labtech).
(§4) After 72 h incubation, the treated plates were measured in the same way as the day 0 plate mentioned above.

For assay [2], the system named is NCI-H1703. In words: Anti-proliferative effect (CellTiter-Glo, 72 h), NCI-H1703. Particulars: Homo sapiens, NCI-H1703 cells, median, read-out: IC50 antiproliferation assay NCI-H1703 [M] (median). On the procedure: as §1, §2, §3, §4
The subject of assay [3] is OPM2. In words: Anti-proliferative effect (CellTiter-Glo, 72 h), OPM2. Particulars: OPM2 cells, median, read-out: IC50 antiproliferation assay OPM2 [M] (median). The method, boiled down: (§5)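 Cells were treated with compounds for 72 h at 37 °C in a humidified incubator, and viability was measured by CellTiter-Glo luminescence. A parallel day 0 plate, read the same way, gave the time zero baseline.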

In assay [4] the test system is MV-4-11. The assay is described as follows: Anti-proliferative effect (CellTiter-Glo, 72 h), MV-4-11. Particulars: MV-4-11 cells, median, read-out: IC50 antiproliferation assay MV-4-11 [M] (median). The method, boiled down: as §5

Where a name gives a salt, the structure may show the parent alone. Read-outs that look alike come from different tables or passages of the source. Where only a bound is given, the exact number is not on record here.

`CN1CCCn2c(C(=O)O)c(CCCOc3cccc4ccccc34)c3cccc(c32)-c2c(COc3ccc(N4CCN(S(=O)(=O)N(C)C)CC4)cc3)nn(C)c2C1` (single isomer, unassigned; enantiomer 1) [Example 1-15, (+)-11-({4-[4-(dimethylsulfamoyl)piperazin-1-yl]phenoxy}methyl)-7,9-dimethyl-1-[3-(naphthalen-1-yloxy)propyl]-4,5,6,7,8,9-hexahydropyrazolo[3′,4′:7,8][1,5]diazecino[9,10,1-hi]indole-2-carboxylic Acid (Enantiomer 1)]: the IC50 in assay [1] was greater than 3.3e-05 M; in assay [2] it was 1.1e-05 M; in assay [3] it was 1.91e-06 M; in assay [4] (Homo sapiens, MV4-11, 72 h), 3.52e-06 M.

Consider `CN1CCCn2c(C(=O)O)c(CCCOc3cccc4ccccc34)c3cccc(c32)-c2c(CN3CCOCC3)nn(C)c2C1` (single isomer, unassigned; enantiomer 1) [Example 1-43, (+)-7,9-dimethyl-11-(morpholin-4-ylmethyl)-1-[3-(naphthalen-1-yloxy)propyl]-4,5,6,7,8,9-hexahydropyrazolo[3′,4′:7,8][1,5]diazecino[9,10,1-hi]indole-2-carboxylic Acid (Enantiomer 1)], for which the IC50 turned out to be 1.81e-05 M in assay [3] (Homo sapiens, OPM-2, 72 h) and 6.59e-06 M in assay [4] (Homo sapiens, MV4-11, 72 h).

Consider `CN1CCCn2c(C(=O)O)c(CCCOc3cccc4ccccc34)c3cccc(c32)-c2c(COc3ccc(N4CCN(S(C)(=O)=O)CC4)cc3)nn(C)c2C1` (single isomer, unassigned; enantiomer 1) [Example 1-46, (+)-7,9-dimethyl-11-({4-[4-(methylsulfonyl)piperazin-1-yl]phenoxy}methyl)-1-[3-(naphthalen-1-yloxy)propyl]-4,5,6,7,8,9-hexahydropyrazolo[3′,4′:7,8][1,5]diazecino[9,10,1-hi]indole-2-carboxylic Acid (Enantiomer 1)], for which the IC50 in assay [3] came out at 1.52e-06 M; in assay [4] (Homo sapiens, MV4-11, 72 h), 7.2e-07 M.

With `CCc1c2c(nn1C)CN(C)CCCn1c(C(=O)O)c(CCCOc3cccc4ccccc34)c3ccc(C)c-2c31` (single isomer, unassigned; enantiomer 1) [Example 145, 11-Ethyl-7,10,12-trimethyl-1-[3-(1-naphthyloxy)propyl]-4,5,6,7,8,10-hexahydropyrazolo[3′,4′:7,8][1,5]diazecino[9,10,1-hi]indole-2-carboxylic acid-N-ethylethanamine Salt (Enantiomer 1)], the IC50 in assay [1] was determined as 1.17e-05 M; in assay [2] it was 6.53e-06 M; in assay [3] (Homo sapiens, OPM-2, 72 h) it was 3.22e-06 M; in assay [4] (Homo sapiens, MV4-11, 72 h), 4.3e-06 M.

Regarding `CCc1c2c(nn1C)COCCCCn1c(C(=O)O)c(CCCOc3cccc4ccccc34)c3cccc-2c31` (single isomer, unassigned; enantiomer 1) [Example 148, 3-Ethyl-2-methyl-7-[3-(1-naphthyloxy)propyl]-2,10,11,12,13,15-hexahydropyrazolo[4′,3′:9,10][1,6]oxazacycloundecino[8,7,6-hi]indole-8-carboxylic acid-N-ethylethanamine Salt (Enantiomer 1)], the IC50 turned out to be 2.67e-05 M in assay [1]; 9.36e-06 M in assay [2]; 2.74e-06 M in assay [3] (Homo sapiens, OPM-2, 72 h); 9.73e-07 M in assay [4] (Homo sapiens, MV4-11, 72 h).

For the molecule `CCc1c2c(nn1C)COCCCCn1c(C(=O)O)c(CCCOc3cccc4ccccc34)c3ccc(C)c-2c31` (single isomer, unassigned; enantiomer 1) [Example 154, 3-Ethyl-2,4-dimethyl-7-[3-(1-naphthyloxy)propyl]-2,10,11,12,13,15-hexahydropyrazolo[4′,3′:9,10][1,6]oxazacycloundecino[8,7,6-hi]indole-8-carboxylic acid-N-ethylethanamine Salt (Enantiomer 1)], the IC50 in assay [1] amounted to 1.84e-05 M; in assay [2], 6.84e-06 M; in assay [3] (Homo sapiens, OPM-2, 72 h), 2e-06 M; in assay [4] (Homo sapiens, MV4-11, 72 h), 1.36e-06 M.

In the case of `Cn1nc(COc2ccc(N3CCN(S(C)(=O)=O)CC3)cc2)c2c1COCCCCn1c(C(=O)O)c(CCCOc3cccc4ccccc34)c3cccc-2c31` (single isomer, unassigned; enantiomer 2) [Example 1-10, 1-methyl-3-({4-[4-(methylsulfonyl)piperazin-1-yl]phenoxy}methyl)-7-[3-(naphthalen-1-yloxy)propyl]-1,10,11,12,13,15-hexahydropyrazolo[4′,3′:9,10][1,6]oxazacycloundecino[8,7,6-hi]indole-8-carboxylic acid (enantiomer 2)], the IC50 was found to be 1.12e-05 M in assay [1], 5.52e-06 M in assay [2], 2.81e-06 M in assay [3] and 2.29e-06 M in assay [4].

In the case of `Cn1nc(COc2ccc(N3CCN(S(=O)(=O)C4CC4)CC3)cc2)c2c1COCCCCn1c(C(=O)O)c(CCCOc3cccc4ccccc34)c3cccc-2c31` (single isomer, unassigned; enantiomer 2) [Example 1-13, 3-({4-[4-(cyclopropylsulfonyl)piperazin-1-yl]phenoxy}methyl)-1-methyl-7-[3-(naphthalen-1-yloxy)propyl]-1,10,11,12,13,15-hexahydropyrazolo[4′,3′:9,10][1,6]oxazacycloundecino[8,7,6-hi]indole-8-carboxylic Acid (Enantiomer 2)], the IC50 in assay [1] was 4.96e-06 M; in assay [2] it was 2.67e-06 M; in assay [3] it was 6.34e-07 M; in assay [4], 1.35e-06 M.

Regarding `Cc1nn(C)c2c1-c1cccc3c(CCCOc4ccc(F)c5ccccc45)c(C(=O)O)n(c13)CCCCOC2` (single isomer, unassigned; enantiomer 2) [Example 023, 7-{3-[(4-fluoronaphthalen-1-yl)oxy]propyl}-1,3-dimethyl-1,10,11,12,13,15-hexahydropyrazolo[4′3′:9,10][1,6]oxazacycloundecino[8,7,6-hi]indole-8-carboxylic acid-N-ethylethanamine Salt (Enantiomer 2)], the IC50 in assay [3] (Homo sapiens, OPM-2, 72 h) was found to be 6.79e-06 M; in assay [4] (Homo sapiens, MV4-11, 72 h), 2.29e-06 M.

Turning to `Cc1c2c(nn1CCN1CCOCC1)CN(C)CCCn1c(C(=O)O)c(CCCOc3cccc4ccccc34)c3cccc-2c31` (single isomer, unassigned; enantiomer 2) [Example 061, 7,11-dimethyl-10-[2-(morpholin-4-yl)ethyl]-1-[3-(naphthalen-1-yloxy)propyl]-4,5,6,7,8,10-hexahydropyrazolo[3′,4′:7,8][1,5]diazecino[9,10,1-hi]indole-2-carboxylic Acid (Enantiomer 2)], the IC50 in assay [3] worked out at 2.51e-05 M; in assay [4] (Homo sapiens, MV4-11, 72 h) it was 8.02e-06 M.
